This note sets out measurements from patent US20090215857A1 (Pfizer Products Inc., priority 2005, published 2009).

pKi: −log10 of the molar value. Counter-ions that a name gives are not always drawn.

For test [1], the target named is T1, human norepinephrine transporter (Homo sapiens, UniProt P23975).
T1 construct: expressed in transfected cells; host or cells: HEK-293
The experiment in a line: hNET receptor binding ([125I]-RTI-55 radioligand). The settings on record: membranes of HEK-293 cells transfected with human norepinephrine transporter cDNA; 50 pM [125I]-RTI-55; IC50 converted by Cheng-Prusoff; read-out: NET Ki. The procedure, abridged: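 Membranes from HEK-293 cells expressing human NET were incubated 90 min at room temperature with 50 pM [125I]-RTI-55 and test compound (10^−5M to 10^−12M) in Krebs-HEPES, pH 7.4.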

Test [2] has as its target T2, human serotonin transporter (Homo sapiens, UniProt P31645).
T2 construct: expressed in transfected cells; host or cells: HEK-293
The experiment in a line: hSERT receptor binding ([125I]-RTI-55 radioligand). Particulars: membranes of HEK-293 cells transfected with human serotonin transporter cDNA; 50 pM [125I]-RTI-55; IC50 converted by Cheng-Prusoff; read-out: SERT Ki. The procedure, abridged: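 Ki values derive via Cheng-Prusoff from IC50s of displacement of 50 pM [125I]-RTI-55 binding to transfected HEK-293 membranes, 90 min at room temperature in pH 7.4 Krebs-HEPES buffer. Compounds spanned 10^−12 to 10^−5 M, in duplicate; nonspecific binding was set with 10 μM citalopram.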

In test [3] the test system is capsaicin-induced mechanical allodynia. The experiment in a line: rat model of capsaicin-induced mechanical allodynia. Type of test: in vivo. Particulars: male Sprague-Dawley rats; 10 mg/kg subcutaneously; PWT 1 hour after single dose; mean of eight animals, normalized for vehicle. The procedure:
Compounds of the present invention may be assayed for their ability to alleviate capsaicin-induced mechanical allodynia in a rat (e.g., Sluka (2002) J of Neuroscience, 22(13): 5687-5693). For example, a rat model of capsaicin-induced mechanical allodynia was carried out as follows:
On day 0, male Sprague-Dawley rats (˜150 g) in the dark cycle were placed in suspended wire-bottom cages and allowed to acclimate for 0.5 hour in a darkened, quiet room. The day 0 paw withdrawal threshold (PWT) was determined on the left hind paw by Von Frey hair assessment using the Dixon up and down method. After assessment, the plantar muscle of the right hind paw was injected with 100 μl capsaicin (0.25% (w/v) in 10% ethanol, 10% Tween 80, in sterile saline). On day 6 the PWT of the left hind paw (contralateral from injection site) was determined for each animal. Animals from the day 6 prereads with PWT ≦11.7 g were considered allodynic responders and were regrouped so that each cage had similar mean PWT values. On day 7, responders were dosed subcutaneously with 10 mg compound/kg body weight, or with vehicle alone. The vehicle was phosphate buffered saline containing 2% Cremophor® EL (BASF). The contralateral PWT values were determined at 1 hour after the single dose, with the investigator blinded to the dosing scheme.
For each animal, the day 6 PWT value was subtracted from the 1 hour PWT value to give a delta PWT value that represents the change in PWT due to the 1 hour drug treatment. In addition, the day 6 PWT was subtracted from the day 0 PWT to give the baseline window of allodynia present in each animal.
The mean percent Inhibition of allodynia values (for eight animals assayed for each compound)+/−the standard error of the mean (SEM) are shown in Table 15.

Test [4] concerns the target T3, neuronal α-BGTX-insensitive central nicotinic receptor (Rattus norvegicus, UniProt P09483+P12390).
T3 construct: Membrane homogenates of cerebral cortex (800 μg protein) are incubated; from tissue; host or cells: rat cerebral cortex membrane homogenates
The experiment in a line: [3H]cytisine radioligand binding assay, rat cerebral cortex. Particulars: 10 μM compound; 1.5 nM [3H]cytisine; rat cerebral cortex membrane homogenates; read-out: Percent inhibition at 10 μM of compound (control radioligand specific binding). The procedure: Several compounds were evaluated for their affinity for the neuronal α-BGTX-insensitive central nicotinic receptor in the rat cerebral cortex determined in a radioligand binding assay.
Experimental protocol Membrane homogenates of cerebral cortex (800 μg protein) are incubated for 75 min at 4° C. with 1.5 nM [^3H]cytisine in the absence or presence of the test compound (10 μM in a buffer containing 50 mM Tris-HCl (pH 7.4), 120 mM NaCl, 5 mM KCl, 1 mM MgCl2 and 2 mM CaCl2.
Nonspecific binding is determined in the presence of 10 μM nicotine.
Following incubation, the samples are filtered rapidly under vacuum through glass fiber filters (Filtermat B, Wallac) presoaked with 0.3% PEI (polyethyleneimine) and rinsed several times with ice-cold 50 mM Tris-HCl using a 48-sample cell harvester (Mach II, Tomtec). The filters are dried then counted for radioactivity in a scintillation counter (Betaplate 1204, Wallac) using a solid scintillator (Meltilex B/HS, Wallac).
The results are expressed as a percent inhibition of the control radioligand specific binding.
The standard reference compound is nicotine, which is tested in each experiment at several concentrations to obtain a competition curve from which its IC50 is calculated.

For orientation: pKi means the Ki on a negative log10 scale, so that one unit is a factor of ten. As a reminder, the inhibition is the drop in the measured response relative to a control, in per cent.

T2 sequence (P31645 whole entry): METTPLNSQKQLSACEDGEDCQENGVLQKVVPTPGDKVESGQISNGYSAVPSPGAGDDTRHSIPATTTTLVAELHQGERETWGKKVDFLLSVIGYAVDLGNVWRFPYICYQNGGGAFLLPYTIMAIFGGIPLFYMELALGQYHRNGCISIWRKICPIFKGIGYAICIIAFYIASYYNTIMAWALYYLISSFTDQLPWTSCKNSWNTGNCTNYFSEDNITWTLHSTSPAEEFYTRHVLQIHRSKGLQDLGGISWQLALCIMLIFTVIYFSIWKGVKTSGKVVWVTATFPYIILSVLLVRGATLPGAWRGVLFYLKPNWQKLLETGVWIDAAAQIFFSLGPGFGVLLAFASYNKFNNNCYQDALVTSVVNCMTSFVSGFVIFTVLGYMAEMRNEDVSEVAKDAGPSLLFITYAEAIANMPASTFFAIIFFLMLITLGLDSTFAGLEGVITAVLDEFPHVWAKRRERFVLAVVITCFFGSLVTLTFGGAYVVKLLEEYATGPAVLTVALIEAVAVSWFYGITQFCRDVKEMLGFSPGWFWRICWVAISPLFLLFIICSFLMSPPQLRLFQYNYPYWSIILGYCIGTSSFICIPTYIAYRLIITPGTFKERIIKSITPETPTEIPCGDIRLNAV
T1 sequence (P23975 whole entry): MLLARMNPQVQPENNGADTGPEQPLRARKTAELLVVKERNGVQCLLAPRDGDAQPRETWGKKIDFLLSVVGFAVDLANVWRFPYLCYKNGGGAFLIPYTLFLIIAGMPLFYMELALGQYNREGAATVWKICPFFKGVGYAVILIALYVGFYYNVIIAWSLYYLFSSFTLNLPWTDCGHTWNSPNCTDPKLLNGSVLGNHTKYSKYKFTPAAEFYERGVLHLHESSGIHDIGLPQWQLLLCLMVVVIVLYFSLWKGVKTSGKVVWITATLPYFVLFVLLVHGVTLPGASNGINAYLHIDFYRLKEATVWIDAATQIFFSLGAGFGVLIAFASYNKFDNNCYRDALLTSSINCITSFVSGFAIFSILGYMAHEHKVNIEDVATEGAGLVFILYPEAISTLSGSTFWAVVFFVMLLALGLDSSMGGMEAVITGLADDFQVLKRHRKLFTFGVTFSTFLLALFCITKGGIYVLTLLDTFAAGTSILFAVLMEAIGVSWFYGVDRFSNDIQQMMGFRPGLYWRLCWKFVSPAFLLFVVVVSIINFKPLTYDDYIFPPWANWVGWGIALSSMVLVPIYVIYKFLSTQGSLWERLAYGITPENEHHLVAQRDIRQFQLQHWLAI
T3 sequence (P09483 31-630): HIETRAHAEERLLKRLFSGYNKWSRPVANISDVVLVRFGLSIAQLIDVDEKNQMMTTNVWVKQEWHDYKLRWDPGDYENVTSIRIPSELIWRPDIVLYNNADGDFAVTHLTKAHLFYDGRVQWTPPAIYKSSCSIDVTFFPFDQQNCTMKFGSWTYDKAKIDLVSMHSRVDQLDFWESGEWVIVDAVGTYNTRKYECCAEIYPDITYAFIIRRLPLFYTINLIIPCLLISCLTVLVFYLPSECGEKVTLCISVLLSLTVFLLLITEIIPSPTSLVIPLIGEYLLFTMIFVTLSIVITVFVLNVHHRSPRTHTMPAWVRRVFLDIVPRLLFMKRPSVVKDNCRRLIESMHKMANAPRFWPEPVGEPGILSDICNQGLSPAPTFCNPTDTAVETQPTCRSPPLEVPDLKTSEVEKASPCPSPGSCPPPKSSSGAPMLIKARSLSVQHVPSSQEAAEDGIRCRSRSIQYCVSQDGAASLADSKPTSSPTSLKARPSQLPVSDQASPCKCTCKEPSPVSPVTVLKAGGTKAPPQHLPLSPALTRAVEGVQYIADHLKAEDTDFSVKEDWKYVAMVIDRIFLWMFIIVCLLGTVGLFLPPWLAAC
T3 sequence (P12390 25-500): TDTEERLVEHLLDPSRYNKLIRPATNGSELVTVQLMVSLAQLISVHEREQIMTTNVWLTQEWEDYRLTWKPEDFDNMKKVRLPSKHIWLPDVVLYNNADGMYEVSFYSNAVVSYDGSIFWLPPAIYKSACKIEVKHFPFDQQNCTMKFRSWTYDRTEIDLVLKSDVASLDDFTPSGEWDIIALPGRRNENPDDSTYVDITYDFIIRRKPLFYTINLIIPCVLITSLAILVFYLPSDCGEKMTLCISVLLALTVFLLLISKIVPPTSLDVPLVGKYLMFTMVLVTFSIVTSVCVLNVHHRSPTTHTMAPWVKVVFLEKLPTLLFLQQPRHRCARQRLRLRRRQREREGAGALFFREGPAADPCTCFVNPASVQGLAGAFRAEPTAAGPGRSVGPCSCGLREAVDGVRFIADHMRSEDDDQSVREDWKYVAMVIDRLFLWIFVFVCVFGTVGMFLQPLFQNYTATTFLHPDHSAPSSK

As for `Fc1ccc(-c2ccccc2CO[C@H]2CCNC2)c(F)c1` [Example A-1, (S)-3-(2′,4′-Difluoro-biphenyl-2-ylmethoxy)-pyrrolidine fumarate], the negative-log Ki (pKi) was 7.96 in test [1] and 6.99 in test [2]. Also, the “% INHIBITION +/− SEM (inhibition of allodynia)” value in test [3] is 40.90 +/− 10.2%.
On the same counts, the results for `Fc1ccc(-c2ccc(F)cc2CO[C@H]2CCNC2)c(F)c1.O=C(O)/C=C/C(=O)O` [Example A-3, (S)-3-(4,2′,4′-Trifluoro-biphenyl-2-ylmethoxy)-pyrrolidine fumarate] are 7.96, 6.87 and 17.40 +/− 9.9%.
In the case of `Cl.Fc1ccc(-c2cccc(F)c2F)c(CO[C@H]2CCNC2)c1` [Example A-4, (S)-3-(4,2′,3′-Trifluoro-biphenyl-2-ylmethoxy)-pyrrolidine hydrochloride], the pKi in test [1] was 7.95; in test [2], 6.86. Also, the “% INHIBITION +/− SEM (inhibition of allodynia)” value in test [3] is on record as 30.20 +/− 1.8%.
Taken in the same sequence, the figures for `Fc1cccc(-c2ccccc2CO[C@H]2CCNC2)c1F.O=C(O)/C=C/C(=O)O` [Example A-6, (S)-3-(2′,3′-Difluoro-biphenyl-2-ylmethoxy)-pyrrolidine fumarate] were 7.89, 7.18 and 66.20 +/− 7.8%.
In the case of `Fc1cc(F)cc(-c2ccccc2CO[C@H]2CCNC2)c1` [Example A-17, (S)-3-(3′,5′-Difluoro-biphenyl-2-ylmethoxy)-pyrrolidine hydrochloride], the pKi in test [1] is 7.03; in test [2], 7.82. Further, the inhibition at 10 µM in test [4] was at most 21%.
Take `FC(F)(F)c1cccc(-c2ccccc2CO[C@H]2CCNC2)c1` [Example A-18, (S)-3-(3′-Trifluoromethyl-biphenyl-2-ylmethoxy)-pyrrolidine hydrochloride]: the negative-log Ki (pKi) in test [1] was 6.99; in test [2], 7.89. For the same compound, the inhibition at 10 µM in test [4] is at most 21%.
